Reference: patent publication US9328138B2 (priority 2011, dated 2016)
pKi: −log10 of the molar value. Where a name gives a salt, the structure may show the parent alone.

Experiments:
[1] = biological target: T1, HCV genotype 1b (BK) NS3 modified enzyme with a R155K mutation (Hepatitis C virus genotype 1b, UniProt P26663, R1181K); experiment: HCV NS3 protease time-resolved fluorescence (TRF) assay, genotype 1b R155K; assay type: biochemical; conditions: Ki 1b R155K
T1 construct: HCV genotype 1b (BK) NS3 modified enzyme
How it was run: (§1)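 Inhibitor titrations are mixed with NS3/NS4A in pH 7.5 HEPES buffer containing 10 mM DTT and 15% glycerol for 10 min before substrate (25 nM final) is added. After 6 h at room temperature, delayed fluorescence is read and fitted to a four-parameter curve for IC50.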

[2] = biological target: HCV NS3 protease genotype 3a (3A-1) (Hepatitis C virus genotype 3a, UniProt Q81258); experiment: HCV NS3 protease time-resolved fluorescence (TRF) assay, genotype 3a; assay type: biochemical; conditions: Ki 3a
How it was run: as §1

[3] = genotype 1b (BK) NS3 R155K, single value
[4] = first of two values printed in the cell (not explained)
[5] = second of two values printed in the cell (not explained)

C=C[C@@H]1C[C@]1(NC(=O)[C@@H]1C[C@@H]2CN1C(=O)[C@H](C(C)(C)C)NC(=O)O[C@@H]1C[C@H]1CCCCCc1c(nc3cc(C(C)C)ccc3c1OCCCNC(C)C)O2)C(=O)NS(=O)(=O)C1(C)CC1 [Example 160, (1aR,5S,8S,10R,22aR)-5-tert-butyl-N-[(1R,2S)-2-ethenyl-1-{[(1-methylcyclopropyl)sulfonyl]carbamoyl}cyclopropyl]-3,6-dioxo-14-(propan-2-yl)-17-[3-(propan-2-ylamino)propoxy]-1,1a,3,4,5,6,9, 10,18,19,20,21,22,22a-tetradeca hydro-8H-7,10-methanocyclopropa[18,19] [1,10,3,6]dioxadiazacyclononadecino [11,12-b]quinoline-8-carboxamide]
pKi [1, 3]: 10.28 | pKi [2]: 9.36

C=C[C@@H]1C[C@]1(NC(=O)[C@@H]1C[C@@H]2CN1C(=O)[C@H](C(C)(C)C)NC(=O)O[C@@H]1C[C@H]1CCCCCc1c(nc3ccccc3c1OCCN1CC3(CCC3)C1)O2)C(=O)NS(=O)(=O)C1(C)CC1 [Example 136, (1aR,5S,8S,10R,22aR)-17-[2-(2-azaspiro[3.3]hept-2-yl)ethoxy]-5-tert-butyl-N-[(1R,2S)-2-ethenyl-1-{[(1-methylcyclopropyl)sulfonyl]carbamoyl}cyclopropyl]-3,6-dioxo-1,1a,3,4,5,6,9,10,18,19,20,21,22,22a-tetradecahydro-8H-7,10-methanocyclopropa[18,19][1,10,3,6] dioxadiazacyclononadecino [11,12-b]quinoline-8-carboxamide]
pKi [1, 3]: 9.24 | pKi [2]: 8.29

C=C[C@@H]1C[C@]1(NC(=O)[C@@H]1C[C@@H]2CN1C(=O)[C@H](C1CCCCC1)NC(=O)O[C@@H]1C[C@H]1CCCCCc1c(nc3ccccc3c1OCCCN1CCN(C)CC1)O2)C(=O)NS(=O)(=O)C1(C)CC1 [Example 251, (1aR,5S,8S,10R,22aR)-5-cyclohexyl-N-[(1R,2S)-2-ethenyl-1-{[(1-methylcyclopropyl)sulfonyl]carbamoyl}cyclopropyl]-17-[3-(4-methylpiperazin-1-yl)propoxy]-3,6-dioxo-1,1a,3,4,5,6,9,10,18,19,20,21,22,22a-tetradecahydro-8H-7,10-methanocyclopropa[18,19][1,10,3,6]dioxadiazacyclononadecino[11,12-b]quinoline-8-carboxamide]
pKi [1, 4]: 10.82 | pKi [1, 5]: 10.29 | pKi [2]: 8.94

C=C[C@@H]1CC1(NC(=O)[C@@H]1C[C@@H]2CN1C(=O)[C@H](C(C)(C)C)NC(=O)O[C@@H]1C[C@H]1CCCCCc1c(nc3ccccc3c1OC1C3CNCC1COC3)O2)C(=O)NS(=O)(=O)C1(C)CC1 (single isomer, unassigned) [Example 258, trifluoroacetate]
pKi [1, 4]: 10.92 | pKi [1, 5]: 10.10 | pKi [2]: 8.56

C=C[C@@H]1C[C@]1(NC(=O)[C@@H]1C[C@@H]2CN1C(=O)[C@H](C1(C)CCCCC1)NC(=O)O[C@@H]1C[C@H]1CCCCCc1c(nc3ccccc3c1OC1CCN(C)CC1)O2)C(=O)NS(=O)(=O)C1(C)CC1 [Example 232, (1aR,5S,8S,10R,22aR)—N-[(1R,2S)-2-ethenyl-1-{[(1-methylcyclopropyl)sulfonyl]carbamoyl}cyclopropyl]-5-(1-methylcyclohexyl)-17-[(1-methylpiperidin-4-yl)oxy]-3,6-dioxo-1,1a,3,4,5,6,9,10,18,19,20,21,22,22a-tetradecahydro-8H-7,10-methanocyclopropa[18,19][1,10,3,6]dioxadiazacyclononadecino[11,12-b]quinoline-8-carboxamide]
pKi [1, 4]: 10.70 | pKi [1, 5]: 10.40 | pKi [2]: 9.56

C=C[C@@H]1C[C@]1(NC(=O)[C@@H]1C[C@@H]2CN1C(=O)[C@H](C(C)(C)C)NC(=O)O[C@@H]1C[C@H]1CCCCCc1c(nc3ccccc3c1OCC1CCN(CCOC)CC1)O2)C(=O)NS(=O)(=O)C1(C)CC1 [Example 228, (1aR,5S,8S,10R,22aR)-5-tert-butyl-N-[(1R,2S)-2-ethenyl-1-{[(1-methylcyclopropyl)sulfonyl]carbamoyl}cyclopropyl]-17-{[1-(2-methoxyethyl)piperidin-4-yl]methoxy}-3,6-dioxo-1,1a,3,4,5,6,9,10,18,19,20,21,22,22a-tetradecahydro-8H-7,10-methanocyclopropa[18,19][1,10,3,6] dioxadiazacyclononadecino[11,12-b]quinoline-8-carboxamide]
pKi [1, 3]: 9.96 | pKi [2]: 9.33

C=C[C@@H]1C[C@]1(NC(=O)[C@@H]1C[C@@H]2CN1C(=O)[C@H](C(C)(C)C)NC(=O)O[C@@H]1C[C@H]1CCCCCc1c(nc3ccccc3c1OC1CC3CCC(C1)N3C(=O)OC(C)(C)C)O2)C(=O)NS(=O)(=O)C1(C)CC1 (single isomer, unassigned) [Example 273]
pKi [1, 4]: 10.00 | pKi [1, 5]: 8.73 | pKi [2]: 7.17

C=C[C@@H]1C[C@]1(NC(=O)[C@@H]1C[C@@H]2CN1C(=O)[C@H](C1(C)CCCCC1)NC(=O)O[C@@H]1C[C@H]1CCCCCc1c(nc3ccccc3c1OC1CCNCC1)O2)C(=O)NS(=O)(=O)C1(C)CC1 [Example 268, (1aR,5S,8S,10R,22aR)—N-[(1R,2S)-2-ethenyl-1-{[(1-methylcyclopropyl)sulfonyl]carbamoyl}cyclopropyl]-5-(1-methylcyclohexyl)-3,6-dioxo-17-(piperidin-4-yloxy)-1,1a,3,4,5,6,9,10,18,19,20,21,22,22a-tetradecahydro-8H-7,10-methanocyclopropa[18,19][1,10,3,6]dioxadiazacyclononadecino[11,12-b]quinoline-8-carboxamide]
pKi [1, 4]: 10.92 | pKi [1, 5]: 10.47 | pKi [2]: 9.70

C=C[C@@H]1C[C@]1(NC(=O)[C@@H]1C[C@@H]2CN1C(=O)[C@H](C(C)(C)C)NC(=O)O[C@@H]1C[C@H]1CCCCCc1c(nc3ccccc3c1OCCCN(CC(O)c1ccc(O)c(O)c1)C(C)C)O2)C(=O)NS(=O)(=O)C1(C)CC1 (stereo partly drawn) [Example 188, (1aR,5S,8S,10R,22aR)-5-tert-butyl-17-(3-{[2-(3,4-dihydroxyphenyl)-2-hydroxyethyl](propan-2-yl)amino}propoxy)-N-[(1R,2S)-2-ethenyl-1-{[(1-methylcyclopropyl)sulfonyl]carbamoyl}cyclopropyl]-3,6-dioxo-1,1a,3,4,5,6,9,10,18,19,20, 21,22,22a-tetradecahydro-8H-7,10-methanocyclopropa[18,19][1,10,3,6] dioxadiazacyclononadecino[11,12-b] quinoline-8-carboxamide]
pKi [1, 3]: 10.48 | pKi [2]: 9.07

C=C[C@@H]1C[C@]1(NC(=O)[C@@H]1C[C@@H]2CN1C(=O)[C@H](C1CCCC1)NC(=O)O[C@@H]1CCC[C@H]1CC/C=C/Cc1c(nc3ccccc3c1OCCCNC(=O)OC(C)(C)C)O2)C(=O)NS(=O)(=O)C1CC1 [Example 84, tert-butyl (3-{[(3aR,7S,10S,12R,21E,24aS)-7-cyclopentyl-10-({(1R,2S)-1-[(cyclopropylsulfonyl)carbamoyl]-2-ethenylcyclopropyl}carbamoyl)-5,8-dioxo-1,2,3,3a,5,6,7,8,11,12, 20,23,24,24a-tetradecahydro-10H-9,12-methanocyclopenta[18,19][1,10,3,6]dioxadiazacyclononadecino [11,12-b]quinolin-19-yl]oxy}propyl)carbamate]
pKi [1, 3]: 9.62 | pKi [2]: 8.14

C=C[C@@H]1C[C@]1(NC(=O)[C@@H]1C[C@@H]2CN1C(=O)[C@H](C(C)(C)C)NC(=O)O[C@@H]1C[C@H]1CCCCCc1c(nc3ccccc3c1OCCCN1CC3(COC3)C1)O2)C(=O)NS(=O)(=O)C1(C)CC1 [Example 194]
pKi [1, 3]: 10.49 | pKi [2]: 9.42
